Here are results for one compound from patent US20240050409A1, “Methods and Compositions for Treating Psychotic Disorders” (SOUND PHARMACEUTICALS INCORPORATED, priority 2014, published 2024).

In test [1] the test system is SZ. The following applies: in vivo; cited from earlier work.
The test system of test [2] is PFC pyramidal neurons of NVHL rats. Description: In vivo intracellular recordings: PFC pyramidal cell firing after VTA stimulation in NVHL rats. The following applies: anesthetized adult NVHL rats, juvenile treatment. Details: species or system Sprague-Dawley rats. The method, then:
The abnormal dopamine modulation of PFC function in NVHL rats is also observed in vivo. In vivo intracellular recordings were performed in 38 pyramidal neurons from adult rats (n=9 SHAM (placebo), n=5 NVHL, and n=7 NAC-treated NVHL). […] Up states occurred at a frequency of 0.6±0.1 Hz with a duration of 523.6±24.7 ms. The majority of cells (n=21) fired spontaneously at a rate of 2.1±0.7 Hz.
Antioxidant pretreatment regimen: NAC (BioAdvantexPharma, Mississauga, Ontario, Canada) was administered in the drinking water at 900 mg/l. NAC treatment started at P5 or at P35, and previous work in mice has shown that NAC consumed by the dam is transmitted to the pups through her milk (das Neves Duarte et al., 2012). NAC treatment ended at P50. Fresh solutions were prepared every 2-3 days. Ebselen (Sound Pharmaceuticals Inc., Seattle, WA) was administered i.p. 5 days a week starting at P35 until the day of PPI testing (P60). Stock ebselen solution (20 mg/ml DMSO, frozen aliquots) was diluted 1:5 in sterile water and administered at a dose of 10 mg/kg. Control animals received an equivalent concentration of DMSO diluted 1:5 in water. […]
Microelectrodes were advanced through the medial PFC until a neuron was impaled. […] Firing was measured in the 500 ms epoch following the last VTA pulse in all sweeps, and compared among experimental groups. […]

Entries after “also recorded” stand apart in the source; their conditions may differ.

Take `CC(=O)N[C@@H](CS)C(=O)O` [NAC, N-acetyl cysteine]: in test [1], the “mismatch negativity in SZ” value was “improved”. Further, in test [2], the “effect on abnormal increase in pyramidal cell firing after VTA burst stimulation” value is given as “prevented; also recorded: sparse”.
